This data set addresses ATP-dependent translocase ABCB1 (Homo sapiens, UniProt P08183). As to the kind of experiment: TP_TRANSPORTER: increase in Rhodamine 123 intracellular accumulation in AML-2/D100 cells. In kind it is functional, cell-based.

Chain of ATP-dependent translocase ABCB1 (P08183 whole entry): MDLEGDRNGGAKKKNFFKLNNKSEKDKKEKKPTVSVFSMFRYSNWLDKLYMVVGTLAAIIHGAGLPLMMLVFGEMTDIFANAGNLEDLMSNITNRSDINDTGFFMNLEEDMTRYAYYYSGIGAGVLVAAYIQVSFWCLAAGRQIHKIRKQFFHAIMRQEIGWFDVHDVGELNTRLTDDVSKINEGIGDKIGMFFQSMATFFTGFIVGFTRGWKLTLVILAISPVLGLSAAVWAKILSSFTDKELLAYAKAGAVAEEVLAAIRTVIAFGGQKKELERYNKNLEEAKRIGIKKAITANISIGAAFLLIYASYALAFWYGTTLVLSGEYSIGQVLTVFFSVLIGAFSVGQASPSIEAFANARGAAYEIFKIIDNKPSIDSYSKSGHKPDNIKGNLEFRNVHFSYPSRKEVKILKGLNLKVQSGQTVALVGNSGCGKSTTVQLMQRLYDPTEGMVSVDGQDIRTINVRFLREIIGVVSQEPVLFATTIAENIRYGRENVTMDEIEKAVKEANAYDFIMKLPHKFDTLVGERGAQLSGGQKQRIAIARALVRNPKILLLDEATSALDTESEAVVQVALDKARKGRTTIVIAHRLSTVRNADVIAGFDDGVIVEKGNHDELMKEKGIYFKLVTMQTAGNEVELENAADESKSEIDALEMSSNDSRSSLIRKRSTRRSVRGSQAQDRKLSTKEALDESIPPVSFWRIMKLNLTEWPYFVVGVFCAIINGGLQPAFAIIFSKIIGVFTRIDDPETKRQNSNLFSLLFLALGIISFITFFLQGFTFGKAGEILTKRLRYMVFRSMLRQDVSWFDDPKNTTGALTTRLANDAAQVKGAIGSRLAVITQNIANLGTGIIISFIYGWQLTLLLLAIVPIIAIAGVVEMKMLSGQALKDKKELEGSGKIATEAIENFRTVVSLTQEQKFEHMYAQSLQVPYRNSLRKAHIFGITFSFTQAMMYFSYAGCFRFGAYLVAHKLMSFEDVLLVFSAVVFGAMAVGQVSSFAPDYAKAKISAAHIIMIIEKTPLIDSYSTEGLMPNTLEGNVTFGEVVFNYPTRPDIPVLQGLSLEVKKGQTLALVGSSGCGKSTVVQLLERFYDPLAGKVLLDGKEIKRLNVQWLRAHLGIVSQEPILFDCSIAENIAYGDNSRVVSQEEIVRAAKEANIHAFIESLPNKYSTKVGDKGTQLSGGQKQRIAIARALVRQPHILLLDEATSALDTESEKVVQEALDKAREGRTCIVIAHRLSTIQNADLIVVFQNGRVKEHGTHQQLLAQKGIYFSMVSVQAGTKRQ

With `COc1cc(OC)c2c(=O)cc(-c3cc(OC)c(OC)c(OC)c3)oc2c1`, the Activity entry is “inhibitor [+]”.

(Values after ChEMBL document CHEMBL2074200, “Reversal of P-glycoprotein-mediated MDR by 5,7,3',4',5'-pentamethoxyflavone and SAR” (Biochem Biophys Res Commun, 2004).)
